In PubChem BioAssay AID504726 (Broad Institute, 2011) one finds activity change, negative = cytotoxicity data, which are given here for 77 molecules.

The source made the active and inactive calls.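 Rule for the calls: active = fitted half-maximal concentration for a cytotoxic signal drop no higher than ten times the top valid dose tested; inconclusive = flat curve between -70 and -30 percent, or an unreliable fit; inactive = flat within 30 percent, signal rise, or potency beyond limit.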

This test can be described thus: viability loss in HeLa cells – cell-based, 24 h, cherry-picked samples, cytotoxicity control, dose response (AID 504726).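 Note: 0% = DMSO neutral controls and -100% = mitoxantrone positive controls.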 Particulars: HeLa viability, CellTiter-Glo ATP luminescence, 24 h; at 35 µM (top of the series).
As for `O=C(O)c1ccccc1NC(=O)c1cc(-c2ccccc2)nc2ccccc12`, the activity change, negative = cytotoxicity was -2.32% (inactive).

As for `NNC(=S)Nc1ccc(S(=O)(=O)N2CCOCC2)cc1`, the activity change, negative = cytotoxicity was 0.037% (inactive). On to `Nc1ccc(-c2c3ccc(=O)cc-3oc3cc(O)ccc23)cc1C(=O)O`, for which the activity change, negative = cytotoxicity is -1.65% (inactive).

`Cc1nc(Cl)c2c(n1)NC1=C(O2)C(=O)CCC1`: the activity change, negative = cytotoxicity is -16.2% (inactive). For the molecule `O=C(O)/C(=C\c1cccs1)Sc1nnc(-c2ccc(F)cc2)o1`, the activity change, negative = cytotoxicity was 0.075% (inactive). Take `CCc1noc(C)c1C(=O)N1CCCC(N2CCN(c3ccc(F)cc3)CC2)C1` (configuration not stated): the activity change, negative = cytotoxicity was -1.12% (inactive).

On to `O=C(c1coc(=O)c(Br)c1)N1CCCc2ccccc21`, for which the activity change, negative = cytotoxicity was -15% (inactive). As for `CCOC(=O)C1=C(COC(=O)c2ccc([N+](=O)[O-])s2)NC(=O)NC1C` (configuration not stated), the activity change, negative = cytotoxicity is -1% (inactive). Turning to `COc1ccc(NS(=O)(=O)c2ccc3c(c2)[C@H]2C=CC[C@H]2[C@@H](c2ccc(C(=O)O)cc2)N3)cc1`, the activity change, negative = cytotoxicity is -3.11% (inactive). As for `Cc1ccc(C)c(OCC(=O)N(Cc2nnc(-c3ccccc3Cl)o2)C2CC2)c1`, the figure is -0.736% (inactive).

`O=C(CN1C(=O)/C(=C/c2ccco2)SC1=S)Nc1ccc(C(=O)O)c(O)c1`: the activity change, negative = cytotoxicity was -0.625% (inactive). `Cc1cccc(N2C(=O)c3cccc4c(N)ccc(c34)C2=O)c1`: the activity change, negative = cytotoxicity is 3.39% (inactive). As for `COc1cccc(C2CC(=O)Nc3cc4c(cc32)CCC4)c1` (configuration not stated), the activity change, negative = cytotoxicity was 14.6% (inactive). For the molecule `Cc1cc(NC(=O)CSc2nnc(COc3cccc(C)c3C)n2C)no1`, the activity change, negative = cytotoxicity was 6.24% (inactive). `COc1ccc(C2(CNC(=O)CCC(=O)O)CCCC2)cc1OC`: the activity change, negative = cytotoxicity was -16% (inactive). Turning to `CCCc1cc(=O)oc2cc(C)cc(OCC(=O)O)c12`, the activity change, negative = cytotoxicity is -7.49% (inactive).

Regarding `COc1ccc(CCNC(=O)CNC(=O)Cn2ccc3ccccc3c2=O)cc1OC`, the activity change, negative = cytotoxicity was 2.19% (inactive). As to `COc1ccc(S(=O)(=O)N2CCC(C(=O)N3CCCCC3)CC2)cc1`, the activity change, negative = cytotoxicity is -17.6% (inactive). As to `CCN(C(=O)COC(=O)c1nc2nc(C)cc(C)n2n1)C1CCCCC1`, the activity change, negative = cytotoxicity is 5.26% (inactive). For the molecule `Cc1ccc(NC(=S)N/C(=N/S(=O)(=O)c2ccccc2)c2ccccc2)cc1`, the activity change, negative = cytotoxicity is 6.71% (inactive).

For `NC(=S)NN=Cc1ccc(-c2ccc(S(=O)(=O)Nc3ncccn3)cc2)o1`, the activity change, negative = cytotoxicity was -14.8% (inactive). For the molecule `O=C(O)CN1C(=O)/C(=C\c2cc(Br)ccc2OCc2ccc([N+](=O)[O-])cc2)SC1=S`, the activity change, negative = cytotoxicity is -1.76% (inactive).

Regarding `O=C(CC1CCCC1)N1CCN(S(=O)(=O)c2ccccc2)CC1`, the activity change, negative = cytotoxicity is -13.4% (inactive).

Consider `O=S(=O)(O)c1cc(O)c2cc(Nc3ccccc3)ccc2c1`, for which the activity change, negative = cytotoxicity is -1.35% (inactive). For the molecule `COC(=O)c1ccccc1OCC(=O)N1CCN(c2ccc(Cl)cc2)CC1`, the activity change, negative = cytotoxicity is -6.81% (inactive). For the molecule `COc1ccccc1C(=O)NCC(=O)OCC(=O)N(CC(C)C)c1c(N)n(Cc2ccccc2)c(=O)[nH]c1=O`, the activity change, negative = cytotoxicity was 1.22% (inactive). As for `O=C(NC1CCCCC1)c1cc([N+](=O)[O-])ccc1N1CCOCC1`, the activity change, negative = cytotoxicity is -0.855% (inactive).

In the case of `CCOC(=O)[C@H]1[C@H]2COc3cc(OC)ccc3[C@@H]2N2C(=O)CN(Cc3ccc(OC)cc3)C(=O)[C@@]12C`, the activity change, negative = cytotoxicity is -9.01% (inactive).

For the molecule `FC(F)(F)c1nnc(-c2ccccc2)nc1N1CCCC1`, the activity change, negative = cytotoxicity is -13.4% (inactive).

For the molecule `O=S(=O)(NCc1cccnc1)c1ccc(Cl)s1`, the activity change, negative = cytotoxicity is 4.67% (inactive).

Consider `CCC(C)[C@H](NC(=O)[C@@H]1Cc2ccccc2CN1)C(=O)Nc1ccc2c(c1)OCO2` (some centres not stated), for which the activity change, negative = cytotoxicity was -9.19% (inactive). Take `O=C(CN1CC[C@@]2(O)CCCC[C@H]2[C@@H]1c1ccc(F)cc1)NCc1ccco1`: the activity change, negative = cytotoxicity was -5.52% (inactive). Under `Cc1sc2nnn(CC(=O)N3CCN(C(=O)c4ccco4)CC3)c(=O)c2c1C` stands -4.76% (inactive). Under `Cc1ccc(C(CC(=O)N2CCCCC2)c2ccccc2)c(O)c1C` (configuration not stated) stands -3.99% (inactive); under `CNc1ccc2c3c(cccc13)C(=O)N(C)C2=O`, -12.7% (inactive). With `O=C(O)CC(C(=O)O)N1C(=O)/C(=C/C=C/c2ccco2)SC1=S` (configuration not stated), the activity change, negative = cytotoxicity was -8.39% (inactive). Consider `C=CCNC(=O)c1cn(CC)c2cc(N3CCN(C(=O)c4ccco4)CC3)c(F)cc2c1=O`, for which the activity change, negative = cytotoxicity is 6.14% (inactive). Regarding `CCCCN(C(=O)CSc1nnc(-c2ccc(Cl)cc2)o1)c1c(N)n(CC(C)C)c(=O)[nH]c1=O`, the activity change, negative = cytotoxicity is 5.27% (inactive). For the molecule `CCOC(=O)c1c(/N=C/c2c(O)n(-c3cccc(C)c3)c(=O)[nH]c2=O)sc2c1CCCC2`, the activity change, negative = cytotoxicity was -22.9% (inactive). Under `CCCOc1ccc(C=Nc2ccc(OC)c(S(=O)(=O)N3CCOCC3)c2)c(O)c1` stands 19% (inactive); under `COc1ccc(NC(=O)COC(=O)c2c(-c3ccccc3)noc2C)cc1`, 6.45% (inactive). On to `CN(C)c1ccc(/C=N/N(CCO)C2=NS(=O)(=O)c3ccccc32)cc1`, for which the activity change, negative = cytotoxicity was -6.62% (inactive). `COc1ccc(C(C)=O)cc1CN(C)C`: the activity change, negative = cytotoxicity is 9% (inactive). Under `Cc1cc2nc3c(=O)n(C4CCCCC4)c(=O)[nH]c3nc2cc1N` stands 4.62% (inactive); under `O=C(O)COc1ccc2c(c1)O/C(=C\c1ccco1)C2=O`, -1.96% (inactive); under `CC(C(=O)Nc1ccc(C(=O)O)c(O)c1)N1C(=O)/C(=C\c2ccco2)SC1=S` (configuration not stated), -7.47% (inactive).

Consider `S=c1[nH]nc([C@@H]2C[C@H]2c2ccccc2)n1-c1ccccc1Cl`, for which the activity change, negative = cytotoxicity was -6.51% (inactive). Regarding `Cc1ccc(OCC(=O)NC(=S)Nc2cccc(NC(=O)c3ccc(Cl)cc3Cl)c2)cc1`, the activity change, negative = cytotoxicity was -4.71% (inactive). For `CC1=NN(c2cccc(C(=O)O)c2)C(=O)/C1=C\C=C\c1ccco1`, the activity change, negative = cytotoxicity is -5.55% (inactive).

On to `COc1ccc(NS(=O)(=O)c2cccc3ccccc23)cc1`, for which the activity change, negative = cytotoxicity is -7.48% (inactive). Regarding `CCCCn1nc(CC(=O)O)c2ccccc2c1=O`, the activity change, negative = cytotoxicity was -0.208% (inactive). Take `CCOC(=O)CN1NC2(CCCCCC2)NC1=S`: the activity change, negative = cytotoxicity was -1.79% (inactive). Consider `COC(=O)C[n+]1cccc2ccccc21`, for which the activity change, negative = cytotoxicity is -6.11% (inactive).

Regarding `COc1cccc(/C=N/NC(=O)C(=O)NCc2cccnc2)c1O`, the activity change, negative = cytotoxicity is -7.2% (inactive). Consider `CC(=O)N(C(C)=O)N1C(=O)c2cccc3c(N4CCOCC4)ccc(c23)C1=O`, for which the activity change, negative = cytotoxicity was -2.78% (inactive).

Take `Cc1ccc2cccc(OCC(=O)NCCC3=CCCCC3)c2n1`: the activity change, negative = cytotoxicity is -6.65% (inactive). As for `CCN(Cc1ccccc1)C(=O)c1cccc(S(=O)(=O)N2CCN(Cc3ccccc3)CC2)c1`, the activity change, negative = cytotoxicity is 1.39% (inactive). For the molecule `NC(=S)COc1ccccc1`, the activity change, negative = cytotoxicity is -7.95% (inactive). In the case of `COc1cc(OC)cc(-c2c(-c3ccsc3)c3cc(Br)ccc3n2C)c1`, the activity change, negative = cytotoxicity was -23.6% (inactive).

`Cc1ccc(C(=O)c2coc3ccc(O)c(Cl)c23)cc1`: the activity change, negative = cytotoxicity is -2.67% (inactive).

Consider `COc1cc(-c2ccc(Nc3ccccc3C(=O)O)c(OC)c2)ccc1Nc1ccccc1C(=O)O`, for which the activity change, negative = cytotoxicity is -14.8% (inactive).

Regarding `Cn1c(=O)oc2cc(S(=O)(=O)CCC(=O)N3CCN(c4ccccc4F)CC3)ccc21`, the activity change, negative = cytotoxicity was -1.08% (inactive). For the molecule `C/C(=N/NC(=O)c1ccncc1)c1cc2ccc(O)cc2oc1=O`, the activity change, negative = cytotoxicity is 3.38% (inactive).

In the case of `O=C(CN1C(=O)NC2(CCCC2)C1=O)Nc1ccccc1-c1ccccc1`, the activity change, negative = cytotoxicity is -3.7% (inactive). Consider `O=C(NCc1cccnc1)C(=O)C1C(=O)Nc2ccccc21` (configuration not stated), for which the activity change, negative = cytotoxicity is -6.53% (inactive).

As to `CCOc1ccccc1N1CCN(C(=O)c2ccc3nc(N)sc3c2)CC1`, the activity change, negative = cytotoxicity was -19.1% (inactive).

Turning to `CCN(CC)C(=S)SC1CCCCN(C(=O)c2ccccc2)C1=O` (configuration not stated), the activity change, negative = cytotoxicity was -6.6% (inactive). In the case of `Nc1ccc2nc3c(=O)n(C4CCCCC4)c(=O)[nH]c3nc2c1`, the activity change, negative = cytotoxicity was -0.337% (inactive). As for `CCOC(=O)C1=C(O)/C(=C/c2cc(C)n(-c3ccccc3)c2C)N=C1C`, the figure is 3.92% (inactive). For the molecule `O=c1cc2c(=O)oc3cc(O)c(O)oc3c2c(O)c1O`, the activity change, negative = cytotoxicity is -7.01% (inactive). Take `O=C(NCCN1CCN(C(=O)c2cccs2)CC1)c1cccs1`: the activity change, negative = cytotoxicity was -5.34% (inactive). Consider `COc1cc(O)c(C(C)=O)c(CC(=O)O)c1`, for which the activity change, negative = cytotoxicity is -0.718% (inactive). Under `COc1ccccc1N1CCN(S(=O)(=O)c2c(C)[nH]c(C)c2C(=O)N2CCCC2)CC1` stands 3.8% (inactive). Consider `Cc1ccc(-c2nnc(-c3ccc(NC(=O)c4ccco4)cc3)o2)cc1`, for which the activity change, negative = cytotoxicity is -2.7% (inactive). On to `COc1ccc(OC2CCN(S(=O)(=O)c3ccc(OC)cc3)CC2)cc1`, for which the activity change, negative = cytotoxicity was -12.1% (inactive). As to `O=C1C=C(c2ccoc2)N2CCC[C@H]2C1`, the activity change, negative = cytotoxicity was -3.65% (inactive).

As for `CN1CCN(C(=S)c2ccc(N(C)C)cc2)CC1`, the activity change, negative = cytotoxicity is 6.8% (inactive).
